Assay results from paper PMC7497641, “Neurotropic activity and safety of methylene-cycloalkylacetate (MCA) derivative 3-(3-allyl-2-methylenecyclohexyl) propanoic acid” (ACS Chemical Neuroscience, 2020).

Key:
[1] = system: PC12 dopaminergic cell cultures; test: PC12 neurotropic (neurite outgrowth) assay; type: cell-based, rat
[2] = Acute (single-dose) oral toxicity, pathology of major organs; type: in vivo; conditions: 2000 mg/kg orally
Procedure: Prioritizing compounds with a lower chance of causing toxicity, early in the drug discovery process, would help in the drug development process.[30] With this consideration we conducted acute (single-dose) toxicity study[31] to determine the short-term adverse pathological effects on major mice organs of HU-MCA-13 when administered in mice in a single dose, for a period of 24 h. One group of 5 mice received HU-MCA-13 orally at a dose of 2000 mg/kg, dissolved in a nano-emulsifying drug delivery system[32] in a bolus of 0.4 mL/mouse. After 24 h exposure, the animals were sacrificed, and organs were harvest for pathology analyses. […] This finding was not related to the tested compound and was considered as an accidental finding. This information on the lack of acute toxicity of HU-MCA-13 may predict the safety of this compound in future therapeutic evaluation.
C57Bl/6 mice, 8 weeks old, obtained from Envigo animal breeding center were used in the study. All experiments were approved by the Institutional Animal Care and Use Committee and performed according to OECD guidelines for testing of chemicals.[53] Organs were harvested from mice that were administered with MCA-13 for the detection of possible toxicological lesions in the framework of a safety assessment. […]

[3] = target: T1, Vascular endothelial growth factor receptor 2 (KDR tyrosine kinase) (VEGFR2) (Homo sapiens, UniProt P35968); test: SAFETYscan KINOMEscan binding assay; conditions: Inhibitor
T1 construct: host or cells: E. coli BL21-derived host (T7 phage) or HEK-293

[4] = target: T2, cGMP-inhibited cyclic nucleotide phospho-diesterase 3A (PDE3A) (Homo sapiens, UniProt Q14432); test: SAFETYscan Enzymatic assay; type: biochemical; conditions: Inhibitor
T2 construct: purchased Signal Chem

[5] = target: T3, Adrenergic Receptor β1 (ADRB1) (Homo sapiens, UniProt P08588); test: SAFETYscan GPCR cAMP; type: cell-based; conditions: read-out: RC50 (the source's name)
T3 construct: host or cells: cAMP Hunter cell lines

[6] = target: T4, Adrenergic Receptor α2A (ADRA2A) (Homo sapiens, UniProt P08913); test: SAFETYscan GPCR cAMP; type: cell-based
T4 construct: host or cells: cAMP Hunter cell lines

[7] = 10 μM, read-out: MCA-13 Max. Responce
[8] = read-out: RC50 (the source's name)

T4 sequence (P08913 whole entry): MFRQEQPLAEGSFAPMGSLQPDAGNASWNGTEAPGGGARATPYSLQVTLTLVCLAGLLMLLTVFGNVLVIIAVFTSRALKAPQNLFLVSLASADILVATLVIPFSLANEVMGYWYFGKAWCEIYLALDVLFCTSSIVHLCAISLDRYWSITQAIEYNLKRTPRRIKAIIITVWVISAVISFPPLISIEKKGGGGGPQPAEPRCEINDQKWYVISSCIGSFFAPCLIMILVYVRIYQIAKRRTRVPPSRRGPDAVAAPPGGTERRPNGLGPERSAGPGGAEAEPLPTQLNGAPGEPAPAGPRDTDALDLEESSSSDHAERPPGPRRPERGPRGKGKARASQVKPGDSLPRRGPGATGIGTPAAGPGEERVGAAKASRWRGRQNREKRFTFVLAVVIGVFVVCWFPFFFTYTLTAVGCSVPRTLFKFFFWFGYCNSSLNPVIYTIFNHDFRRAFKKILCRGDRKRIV
T3 sequence (P08588 whole entry): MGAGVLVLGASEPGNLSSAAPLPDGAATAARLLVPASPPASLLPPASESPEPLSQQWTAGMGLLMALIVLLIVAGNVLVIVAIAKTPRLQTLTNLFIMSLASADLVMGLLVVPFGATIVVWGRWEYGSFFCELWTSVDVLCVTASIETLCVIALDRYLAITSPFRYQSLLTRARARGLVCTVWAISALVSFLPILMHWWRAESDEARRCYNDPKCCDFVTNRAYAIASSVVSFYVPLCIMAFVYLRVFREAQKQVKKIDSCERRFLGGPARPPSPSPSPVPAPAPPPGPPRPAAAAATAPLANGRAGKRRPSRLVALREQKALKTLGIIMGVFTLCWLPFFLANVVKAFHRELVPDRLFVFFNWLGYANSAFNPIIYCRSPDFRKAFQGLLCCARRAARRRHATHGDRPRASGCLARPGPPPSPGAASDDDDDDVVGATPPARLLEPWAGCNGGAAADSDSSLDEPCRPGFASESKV
T1 sequence (P35968 20-1356): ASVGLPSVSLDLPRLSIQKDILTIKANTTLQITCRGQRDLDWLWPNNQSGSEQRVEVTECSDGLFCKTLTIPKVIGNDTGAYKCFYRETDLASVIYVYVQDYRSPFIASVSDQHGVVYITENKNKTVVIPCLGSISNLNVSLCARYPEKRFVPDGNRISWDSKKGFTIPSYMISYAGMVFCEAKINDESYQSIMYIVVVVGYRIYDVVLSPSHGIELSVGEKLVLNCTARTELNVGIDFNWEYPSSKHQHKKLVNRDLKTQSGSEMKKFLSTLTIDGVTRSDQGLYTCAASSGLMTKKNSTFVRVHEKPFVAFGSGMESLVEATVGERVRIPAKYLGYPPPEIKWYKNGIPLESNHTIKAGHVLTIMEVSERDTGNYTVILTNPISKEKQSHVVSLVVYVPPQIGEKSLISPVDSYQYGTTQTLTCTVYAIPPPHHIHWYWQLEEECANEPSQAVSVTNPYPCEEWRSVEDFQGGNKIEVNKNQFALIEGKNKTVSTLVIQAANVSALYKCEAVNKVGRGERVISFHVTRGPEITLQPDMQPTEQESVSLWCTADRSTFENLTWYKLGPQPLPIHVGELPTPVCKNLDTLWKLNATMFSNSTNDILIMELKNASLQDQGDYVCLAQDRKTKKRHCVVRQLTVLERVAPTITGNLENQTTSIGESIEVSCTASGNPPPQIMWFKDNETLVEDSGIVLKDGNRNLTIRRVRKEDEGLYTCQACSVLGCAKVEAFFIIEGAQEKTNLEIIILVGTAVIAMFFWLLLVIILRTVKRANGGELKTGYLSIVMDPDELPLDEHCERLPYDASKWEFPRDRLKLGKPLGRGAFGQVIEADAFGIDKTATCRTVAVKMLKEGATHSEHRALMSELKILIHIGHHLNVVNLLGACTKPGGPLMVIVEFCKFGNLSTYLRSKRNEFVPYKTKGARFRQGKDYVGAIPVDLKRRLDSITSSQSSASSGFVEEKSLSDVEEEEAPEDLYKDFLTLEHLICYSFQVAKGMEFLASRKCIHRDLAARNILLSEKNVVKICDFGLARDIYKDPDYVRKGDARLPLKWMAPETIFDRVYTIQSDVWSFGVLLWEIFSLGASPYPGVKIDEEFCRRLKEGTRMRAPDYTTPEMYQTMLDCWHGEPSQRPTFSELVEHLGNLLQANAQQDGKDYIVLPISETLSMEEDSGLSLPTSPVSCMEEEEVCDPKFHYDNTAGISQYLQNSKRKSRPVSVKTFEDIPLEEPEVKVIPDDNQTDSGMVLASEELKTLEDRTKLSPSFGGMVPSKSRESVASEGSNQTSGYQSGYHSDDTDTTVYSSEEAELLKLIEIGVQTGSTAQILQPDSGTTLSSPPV
T2 sequence (Q14432 whole entry): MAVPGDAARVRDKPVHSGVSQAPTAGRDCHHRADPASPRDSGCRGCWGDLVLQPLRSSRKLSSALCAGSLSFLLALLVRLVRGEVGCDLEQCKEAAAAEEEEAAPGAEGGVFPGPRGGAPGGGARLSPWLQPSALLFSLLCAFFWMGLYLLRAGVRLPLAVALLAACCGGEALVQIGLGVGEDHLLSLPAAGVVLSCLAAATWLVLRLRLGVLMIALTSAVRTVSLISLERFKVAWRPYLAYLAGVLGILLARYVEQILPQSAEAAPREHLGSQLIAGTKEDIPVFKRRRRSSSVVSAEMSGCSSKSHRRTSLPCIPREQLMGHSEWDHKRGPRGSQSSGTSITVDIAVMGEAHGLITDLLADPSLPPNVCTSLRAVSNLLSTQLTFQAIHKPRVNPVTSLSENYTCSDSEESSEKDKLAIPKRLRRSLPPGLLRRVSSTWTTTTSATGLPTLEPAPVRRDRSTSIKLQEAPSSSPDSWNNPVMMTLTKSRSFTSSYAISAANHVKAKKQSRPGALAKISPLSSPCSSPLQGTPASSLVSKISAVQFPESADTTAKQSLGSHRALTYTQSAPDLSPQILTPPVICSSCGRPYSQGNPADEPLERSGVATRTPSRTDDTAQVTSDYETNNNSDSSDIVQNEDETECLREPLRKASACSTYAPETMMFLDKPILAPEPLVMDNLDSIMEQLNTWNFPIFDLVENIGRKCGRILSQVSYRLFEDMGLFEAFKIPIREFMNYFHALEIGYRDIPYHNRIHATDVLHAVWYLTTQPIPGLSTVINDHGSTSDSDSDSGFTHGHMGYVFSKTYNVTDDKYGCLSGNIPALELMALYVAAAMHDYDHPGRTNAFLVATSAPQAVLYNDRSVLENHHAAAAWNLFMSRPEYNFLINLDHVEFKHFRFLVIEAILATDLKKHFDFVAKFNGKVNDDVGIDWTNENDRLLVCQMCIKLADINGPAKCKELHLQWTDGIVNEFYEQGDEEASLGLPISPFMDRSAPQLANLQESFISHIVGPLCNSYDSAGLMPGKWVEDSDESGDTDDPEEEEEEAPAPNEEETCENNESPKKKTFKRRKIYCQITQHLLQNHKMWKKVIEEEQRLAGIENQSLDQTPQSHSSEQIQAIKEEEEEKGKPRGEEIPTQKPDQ

For C=CCC1CCCC(CCC(=O)O)C1=C (centres unmarked) [HU-MCA-13, 3-(3-allyl-2-methylenecyclohexyl)propanoic acid], the “neurotropic effect in the presence of Trk A inhibitor K252a” value ([1]; 250 nM K252a, 10 μM HU-MCA-13) was “did not abolished”, the “β tubulin III expression in cell bodies and neurite outgrowths (immunostaining)” value ([1]; 5 μM, 7 days) was “expressed β tubulin III” and the neurite outgrowth ([1]; HU-MCA-13 1 μM) was 10–15%. The “neurite outgrowth, Df” value ([1]; HU-MCA-13 1 μM) was 0.04, the “cytotoxic lesions in all organs (histopathology)” value ([2]; single dose in nano-emulsifying drug delivery system, 24 h) was “no cytotoxic lesions were found” and the “finding in last part of colon, rectum and adjacent anal unhaired skin” value ([2]; in three animals, considered accidental, not related to the tested compound) was “severe purulent, necrotizing inflammation”. For the same molecule, the inhibition at 10 µM [3, 7] was 21.7%, the IC50 [3, 8] was greater than 10 µM and the inhibition at 10 µM [4, 7] was 3.21%. It also gave an IC50 [4, 8] greater than 10 µM, an EC50 ([5]; Agonist) greater than 10 µM and an IC50 ([5]; Antagonist) greater than 10 µM. It also gave an EC50 [6] greater than 10 µM and an IC50 [6] greater than 10 µM.
